# According to US11498943B2, “Amyloid inhibitory peptides” (TECHNISCHE UNIVERSITÄT MÜNCHEN, priority 2018, dated 2022):
# Where a SMILES comes first, the peptide text is derived from it. [ ]: non-standard residue; d: D form. NMeI = CC[C@H](C)[C@H](NC)C(=O)O; Sar = CNCC(=O)O
# Legend:
# [1] = target: T1, Aβ40 (Homo sapiens, UniProt P05067); settings: Aβ40 500 nM; value marked with literature reference [5]; read-out: IC50 (±SD) (nM) Aβ40 inhibition; cited from earlier work
# T1 construct: Aβ40 (TFA salt) was synthesized by Fmoc-based solid phase synthesis (SPPS); made in house; host or cells: chemical synthesis (Fmoc SPPS on Tentagel R PHB resin)
# [2] = target: T2, IAPP (Homo sapiens, UniProt P10997); assay: IAPP fibrillogenesis by ThT binding, confirmed by TEM, with cell damage by MTT reduction; format: biochemical; parameters: IAPP was synthesized by SPPS and the Fmoc-strategy on RINK resin, subjected to air oxidation and purified by RP-HPLC; made in house; host or cells: chemical synthesis (Fmoc SPPS on RINK resin, air oxidation); settings: IAPP 6 μM, MTT in RIN5fm cells
# T2 sequence (P10997 34-70 limits assumed): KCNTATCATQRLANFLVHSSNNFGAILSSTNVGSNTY
# Experimental: (§1) Thioflavin T (ThT) Binding Assays
# (§2) At indicated time points, aliquots were gently mixed with a ThT solution (20 μM ThT in 0.05 M glycine/NaOH, pH 8.5); ThT binding was determined immediately by measuring fluorescence emission at 486 nm upon excitation at 450 nm using a 2030 Multilabel Reader VictorX3 (PerkinElmer Life Sciences). Effects of peptides added at specific pre- and post-nucleation time points of Aβ40 amyloidogenesis were studied by adding aliquots of Aβ40 solutions (16.5 μM; incubation conditions as above) aged for the indicated time points to the peptide (in dry form) as previously described and ThT binding was determined as above.
# (§3) 10 μl aliquots of solutions of the ThT binding and MTT assays were applied on carbon-coated grids at indicated time points, washed with distilled water and stained with aqueous 2% (w/v) uranyl acetate as described. Grids were examined using a JEOL JEM 100CX (at 100 kV) or a JEOL 1400 Nus electron microscope (at 120 kV).
# (§4) Both cell lines were cultured and plated in 96-well plates as described. […] Following incubation with the cells for ˜20 h (37° C., humidified atmosphere with 5% CO2), the MTT reduction assay was used to assess cell damage/metabolic activity as previously described.
# [3] = target: T1, Aβ40; settings: as previously found; cited from earlier work
# [4] = target: T2, IAPP; parameters: IAPP was synthesized by SPPS and the Fmoc-strategy on RINK resin, subjected to air oxidation and purified by RP-HPLC; made in house; host or cells: chemical synthesis (Fmoc SPPS on RINK resin, air oxidation); settings: as previously found; cited from earlier work
# [5] = target: T1, Aβ40; assay: Aβ40 fibrillogenesis by ThT binding, confirmed by TEM, with cell damage by MTT reduction; format: biochemical; settings: Aβ40 16.5 μM, MTT in PC12 cells
# Experimental: as §1, §2, §3, §4
# [6] = Peptide stability in human plasma (in vitro); format: in vitro ADME; settings: human blood plasma, 200 μM peptide, 37° C., read-out: t1/2 in human plasma
# Experimental: Peptide Stability in Human Plasma (In Vitro)
# Peptides were dissolved in human blood plasma (obtained from voluntary healthy donors) at a concentration of 200 μM and incubated at 37° C. for various time intervals. Following quenching (1/1) with aqueous trichloroacetic acid (10%), solutions were incubated on ice for 10 min, subjected to centrifugation to precipitate plasma proteins (20200 g; 4 min), and the supernatants were mixed (1/2) with a solution consisting of 80% HPLC buffer B and 20% HPLC buffer A (see below). To quantify intact peptide at different time points, solutions containing the supernatants were analyzed by RP-HPLC (detection at 214 nm) by using a Nucleosil 100 C18 column (Grace) (length 33 mm length, ID 8 mm, 7 μm particle size) with a flow rate of 2.0 ml/min and eluting buffers A, 0.058% (v/v) TFA in water, and B, 0.05% (v/v) TFA in 90% (v/v) CH3CN in water. The elution gradient was 10-90% B in A over 8 min; this step was followed by a 90-10% B in A over 3 min step to establish starting conditions. HPLC fractions were collected, lyophilized, and analyzed by MALDI-TOF-MS using a Bruker Daltonik MALDI-TOF MS instrument.
# T1 sequence (P05067 672-711): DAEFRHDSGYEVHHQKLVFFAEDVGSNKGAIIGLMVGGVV
smiles,measurement,setting,value
CC[C@H](C)[C@@H](C(=O)N[C@@H](CC(C)C)C(=O)N[C@@H](CO)C(N)=O)N(C)C(=O)[C@H](C)NC(=O)CN(C)C(=O)[C@H](Cc1ccccc1)NC(=O)[C@H](CC(N)=O)NC(=O)[C@H](CCCNC(=N)N)NC(=O)[C@H](CCCNC(=N)N)NC(=O)[C@H](CCCNC(=N)N)NC(=O)[C@H](Cc1c[nH]cn1)NC(=O)[C@@H](NC(=O)[C@H](CC(C)C)NC(=O)[C@H](Cc1ccccc1)NC(=O)[C@H](CC(N)=O)NC(=O)[C@H](C)NC(=O)[C@H](CC(C)C)NC(=O)[C@H](CCCNC(=N)N)NC(=O)[C@H](CCC(N)=O)NC(=O)[C@@H](NC(=O)[C@H](C)N)[C@@H](C)O)C(C)C [R3-GI (1)] (H-ATQRLANFLVHRRRNF[Sar]A[NMeI]LS-NH2; N-terminus assumed),IC50,[1],116 nM
same,Effect on amyloid self-assembly and cell damage by IAPP,[2],not IAPP amyloidogenesis
same,app. Kd of interaction with fluorescently labeled Aβ40,[3],mid-nanomolar
same,app. Kd of interaction with fluorescently labeled IAPP,[4],mid-nanomolar
same,Effect on amyloid self-assembly and cell-damaging effects of Aβ40,[5],able to inhibit
same,half-life at 200 μM,[6],~20 min
